Assay results from patent publication US9918963B2, “Therapeutic agent for disease based on inhibitory effect of macrophage migration inhibitory factor” (TOYAMA CHEMICAL CO., LTD., priority 2013, dated 2018).

Assays:
MIF = molecular target: T1, MIF (Homo sapiens, UniProt P14174); assay: Inhibition of MIF tautomerase activity (L-dopachrome methyl ester, absorbance at 475 nm); assay type: biochemical; conditions: 30 μmol/L test substance, 10 to 50 nmol/L MIF, pH 6.2, control = 100%; read-out: Inhibition Rate of Tautomerase Reaction
T1 construct: (catalogue number not given); host or cells: E. coli BL21 Star (DE3)
T1 sequence (P14174 2-115 limits assumed): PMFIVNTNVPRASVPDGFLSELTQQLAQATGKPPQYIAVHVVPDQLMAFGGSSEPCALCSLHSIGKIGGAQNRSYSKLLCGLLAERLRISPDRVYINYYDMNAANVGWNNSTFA
Experimental: The inhibitory effect of test substances against tautomerase activity of MIF was evaluated by referring to a method of Healy et al. (Cancer Epidemiology Biomarkers and Prevention, 2011, vol. 20, pp. 1516-1523).
In this method, tautomeric reaction from L-3,4-dihydroxyphenylalanine methyl ester (L-dopachrome methyl ester, colored) to 5,6-hydroxyindole-2-carboxylic acid methyl ester (no color) is measured as a change in absorbance at 475 nm.
As an enzyme source, recombinant MIF manufactured by Abcam Plc. or MIF produced and purified by referring to a method of Lubetsky et al. (The Journal of Biological Chemistry, 2002, vol. 277, pp. 24976-24982) was used. A purification method for MIF is described below.
The pET15b vector (Merck) into which the full length gene sequence of MIF had been inserted was transfected E. coli BL21 Star (DE3) strain (Life Technologies Corporation). […] The E. coli were resuspended in buffer (pH 7.5) containing 20 mmol/L Tris (Wako Pure Chemical Industries, Ltd.), 20 mmol/L sodium chloride (Wako Pure Chemical Industries, Ltd.) and 1 mmol/L dithiothreitol (Wako Pure Chemical Industries, Ltd.), and the resultant was subjected to ultrasonic lysis and centrifugation at 15000 rpm for 10 minutes. The thus obtained supernatant was filtered using a 0.20 μm filter, and was allowed to pass through HiTrap Q HP and HiTrap SP HP columns (GE Healthcare Japan Corporation), so as to separate flow-through fractions each of 5 mL. Each of 10 μL of the separated fractions was subjected to the electrophoresis using 5 to 20% polyacrylamide gel (Wako Pure Chemical Industries, Ltd.), and all proteins were stained with Coomassie brilliant blue reagent (Bio-Rad Laboratories, Inc.). On the basis of results thus obtained, a fraction containing a large amount of MIF and containing least amount of other proteins was selected as purified MIF. The concentration of MIF protein was measured by using BCA protein assay reagent (Thermo Fisher Scientific K. K.).
Inhibitory effect of each test substance against MIF tautomerase activity was measured as follows.
A final concentration of 10 to 50 nmol/L of MIF and a final concentration of 30 μmol/L of each test substance or 0.5% dimethyl sulfoxide (Wako Pure Chemical Industries, Ltd.) as a control were added to buffer (pH 6.2) containing 50 mmol/L Bis-Tris (Dojindo Laboratories) and 1 mmol/L EDTA (Dojindo Laboratories), and reaction was performed at room temperature for 15 minutes to give a reaction solution 1.
On the other hand, 1/20 volume of 12 mmol/L L-3,4-dihydroxyphenylalanine methyl ester (Sigma Aldrich) and 1/20 volume of 24 mmol/L sodium periodate (Wako Pure Chemical Industries, Ltd.) were added to buffer having the same composition as that used for obtaining the reaction solution 1, to give a reaction solution 2.
Next, the reaction solution 1 and the reaction solution 2 were mixed, and the temporal change of absorbance at 475 nm of the obtained mixture was immediately measured.
The difference of the absorbencies between the at about 1 minute after the measurement start and at about 5 minutes after was obtained. Assuming that the absorbance change of the control is 100%, an inhibiting rate of the tautomerase reaction in presence of=each test substance was calculated.

[1] = system: chronic constriction nerve injury model rat; assay: Chronic constriction nerve injury model rat, mechanical allodynia by von Frey test; assay type: in vivo
Experimental: This test was performed by referring to a method of Bennett et al. (Pain, 1988, vol. 33, pp. 87-107). Compound A was used as a test substance, and celecoxib, one of NSAIDs, was used as a reference substance. The compound A was administered at a dose of 30 mg/kg (Compound A group). The celecoxib was administered at a dose of 30 mg/kg (celecoxib group). To a control group, a 0.5% methyl cellulose aqueous solution used as a vehicle was administered. Under anesthetic with Somnopentyl (manufactured by Kyoritsu Seiyaku Corporation, about 52 mg/kg, intraperitoneal administration), nerve constriction operation was performed on the left sciatic nerves of Sprague-Dawley male rats (7 weeks old). Briefly, a left femoral region of each rat was dissected, the sciatic nerve was detached from tissues around, and the nerve was loosely constricted with a 4-0 silk suture (manufactured by Eticon Inc., surgical silk) for having narrow parts in four positions at intervals of about 1 mm. The muscular layer and the skin were respectively sutured, and the operation region was disinfected. The vehicle, the test substance or the reference substance was orally administered once a day continuously for 14 days from the 16th day after the operation. From the start of the administration, pain sense (mechanical allodynia) of the footpad of left hind paw was evaluated by von Frey test. […] The evaluation of the pain sense was expressed as an average of pain threshold values.

CS(=O)(=O)Nc1cc2occ(NC=O)c(=O)c2cc1Oc1ccccc1 [Compound A, N-[7-[(methylsulfonyl)amino]-4-oxo-6-phenoxy-4H-1-benzopyran-3-yl]formamide]
inhibition at 30 µM (MIF): 50 to 75% | Effect on the symptom of mechanical allodynia ([1]; 30 mg/kg orally once a day for 14 days, compared with control group): inhibited the symptom of the mechanical allodynia | Average of pain thresholds, 30th day after operation ([1]; von Frey test, left hind paw, 30 mg/kg orally once a day for 14 days from the 16th day after operation): 13.5 g | Average of pain thresholds, 15th day after operation ([1]; von Frey test, left hind paw, day before start of administration, 30 mg/kg groups): 2.4 g
